US8110365B2, “Compositions and methods for detecting and treating renal injury and inflammation” (Rhode Island Hospital, priority 2006, dated 2012)
Entries after “also recorded” stand apart in the source; their conditions may differ. Where two headings read alike, the source gives them in different places.

Columns and labels:
HKC cells = assay: Cell viability of HKC cells (Trypan blue exclusion); type: cell-based, human; settings: TNF-a (2 ng/ml) treated HKC cells at 24 h
Experimental: (§1) Human proximal TEC (HKC-8) (courtesy of Dr. L. Racusen of John Hopkins University, Baltimore, Md.) were maintained in Dulbecco's modified Eagle's medium (DMEM)/F12 supplemented with 5% fetal bovine serum (FBS). Cells were plated at approximately 70% confluence in the media containing 5% FBS for 24 h and then underwent serum starvation for another 24 h. Human recombinant HGF and human recombinant TNF-α (R&D systems, Minneapolis, Minn.) were added to the culture with fresh serum-free medium at a final concentration of 20 ng/ml and 2 ng/ml respectively, or otherwise as indicated. Cell viability was assessed by Trypan blue exclusion. At different time points, cells and conditioned media were harvested for further investigation.

b-catenin = b-catenin accumulation in HKC; type: cell-based, human
GSK3b = GSK3b (Homo sapiens, UniProt P49841); assay: Inhibitory phosphorylation of GSK3b in HKC cells (immunoblot); type: cell-based; design: endogenous in cells; host or cells: HKC-8
Experimental: as §1
(§2) After different treatments, HKC cells were washed with PBS and lysed with RIPA buffer supplemented with protease inhibitors [1% Nonidet P-40, 0.1% SDS, 100 ug/ml phenylmethysulfonyl fluoride (PMSF), 0.5% sodium deoxycholate, ImM sodium orthovanadate, 2 ug/ml aprotin, 2 ug/ml leupeptin, 5mM EDTA in PBS]. Protein concentration was determined by using a bicinchoninic acid protein assay kit (Sigma). All samples with equal amounts of total protein (50 ug/ml) were fractionated by 7.5˜15% SDS-polyacrylamide gels under reducing condition and analyzed by western immunoblot as described previously (30). The antibodies against p-GSK3b, p-NFkB p65, p-IkBa were purchased from Cell Signaling Technology (Beverly, Mass.) and those for GSK3b, hemagglutin were from Santa Cruz Biotechnology (Santa Cruz, Calif.).

[1] = test system: rats with unilateral urethral obstruction(UUO); assay: Rats with unilateral urethral obstruction (UUO); type: in vivo, rat; settings: for renal inflammation (ED-1 macrophage infiltration): VPA 200 mg/kg/d ip, 5 days
NFkB p65 = assay: TNF-a induced NFkB p65 phosphorylation in HKC cells (immunoblot); type: cell-based, human; settings: HKC cells; for TNF-a induced p65 phosphorylation at S468: TNF-a 2 ng/ml, VPA 1 mM, 10 uM for 60 minutes
Experimental: as §1, §2

GSK3b and NFkB p65 = biological target: T1, GSK3b and NFkB p65 (Homo sapiens, UniProt P49841); assay: Co-immunoprecipitation of GSK3b and NFkB p65 in HKC cells; type: cell-based; settings: HKC cells
T1 construct: whole cell lysates were subjected to immunoprecipitation by anti-GSK3b or anti-p65 antibody; endogenous in cells; host or cells: HKC-8
Experimental: Immunoprecipitation was carried out by using an established method as described previously. Briefly, cells were washed with ice cold PBS and then lysed with RIPA buffer. After preclearing with normal IgG, cell lysates with equal amount of total protein (0.5 mg of protein) were incubated overnight at 4° C. with 4 μg specific agarose-conjugated antibodies. The precipitated complexes were collected, washed, and separated on SDS-polyacrylamide gels and blotted with various antibodies as indicated.

NFkB target genes = assay: Real time RT-PCR of NFkB target genes in TNF-a stimulated HKC cells; type: cell-based, human; settings: HKC cells, 12 h
Experimental: Total RNA was extracted from approximately 1×10^6 cultured HKC cells using TRIzol solution (Invitrogen, Carlsbad, Calif.) according to the instructions specified by the manufacturer. RNA was then diluted to 3μg/μl in RNase free distilled water. The first strand cDNA was prepared using 3 μg RNA, Superscript RT reverse transcriptase (Invitrogen) and oligo (dT) primer according to the manufacture's instruction. Quantitative real time PCR was carried out on a Stratagene Mx4000® multiplex quantitative PCR system (Stratagene, La Jolla, Calif.) using primers specific for human MCP-1, RANTES, IkBa, Bcl-2 and GAPDH. All reactions were performed in triplicate with Brilliant® SYBR® Green QPCR Master Mix (Stratagene). Fluorescence values of SYBR Green I dye, representing the amount of product amplified at that point in the reaction, were recorded in real time at both the annealing step and the extension step of each cycle. The Ct value, defined as the point at which the fluorescence signal was statistically significant above background, was calculated for each amplicon in each experimental sample using Stratagene Mx4000 software. This value was then used to determine the relative amount of amplification in each sample by interpolating from the standard curve. Transcript level of each specific gene was normalized to GAPDH amplification.

[2] = kidney homogenates, immunoblot, listed as VPA

GSK3b, sequence (P49841 whole entry): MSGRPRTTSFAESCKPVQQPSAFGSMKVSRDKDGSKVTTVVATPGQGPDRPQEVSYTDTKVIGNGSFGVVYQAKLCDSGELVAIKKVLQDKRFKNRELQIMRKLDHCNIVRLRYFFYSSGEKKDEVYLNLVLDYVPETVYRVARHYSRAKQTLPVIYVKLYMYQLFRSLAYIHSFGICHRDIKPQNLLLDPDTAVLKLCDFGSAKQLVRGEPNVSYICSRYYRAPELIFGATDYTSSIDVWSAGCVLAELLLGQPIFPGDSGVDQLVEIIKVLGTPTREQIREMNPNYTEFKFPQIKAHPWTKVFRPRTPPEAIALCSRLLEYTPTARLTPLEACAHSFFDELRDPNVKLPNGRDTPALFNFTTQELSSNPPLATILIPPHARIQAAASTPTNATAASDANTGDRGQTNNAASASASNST
T1 sequence (P49841 whole entry): as above

Structure (SMILES)	cell viability / TNF-a induced apoptosis (HKC cells)	b-catenin accumulation (b-catenin)	inhibitory phosphorylation of GSK3b (S9) (GSK3b)	renal inflammation (ED-1 macrophage infiltration) [1]	renal inflammation (ED-1 macrophage infiltration) ([1]; listed as VPA)	renal total GSK3b expression ([1]; kidney homogenates, immunoblot)	renal inhibitory phosphorylation of GSK3b [1, 2]	renal total GSK3b expression [1, 2]	TNF-a induced p65 phosphorylation at other sites (S276, S536) (NFkB p65)	TNF-a induced p65 phosphorylation at S468 (NFkB p65)	TNF-a induced p65 phosphorylation at S468 (NFkB p65; listed as VPA)	TNF-a induced co-precipitation of phosphorylated p65 (Ser468) with GSK3b (GSK3b and NFkB p65; immunoprecipitation by anti-GSK3b)	TNF-a induced GSK3b to p65 interaction (GSK3b and NFkB p65; immunoprecipitation by anti-p65)	TNF-a induced mRNA expression of IkBa and Bcl-2 (NFkB target genes)	TNF-a induced mRNA expression of MCP-1 and RANTES (NFkB target genes)	inhibitory phosphorylation of GSK3b (S9) (GSK3b; listed as Sodium valproate)	inhibitory phosphorylation of GSK3b (S9) (GSK3b; listed as Valproic acid)
Cn1sc(=O)n(Cc2ccccc2)c1=O [TDZD-8]	Only lithium significantly reduced cell viability	induced b-catenin (b-Cat.) accumulation	induced marked GSK3b phosphorylation														
CCCC(CCC)C(=O)O [valproate, Valproic acid, reference compound]	Only lithium significantly reduced cell viability	induced b-catenin (b-Cat.) accumulation	induced marked GSK3b phosphorylation	prevented inflammatory infiltration; also recorded: markedly ameliorates renal inflammation	diminished renal inflammation	blunted induced expression of GSK3b in the diseased kidney	much greater; also recorded: enhanced its inhibitory phosphorylation	substantially suppressed total GSK3b expression	minimally affected phosphorylation of p65 at other sites	suppresses TNF-a elicited p65 phosphorylation at S468	abrogates the TNF-a induced NFkB p65 phosphorylation at Ser468 in a dose dependent manner	mimicking the action of VPA	reminiscent the effect of VPA	mimicked the action of HGF on the expression of these genes	mimicked the action of HGF on the expression of these genes	induced phosphorylation of GSK3b at Ser9	induces inhibitory phosphorylation of GSK3b at S9
